“Also recorded” adds a separate entry of the source.
Legend:
[1] = tested on: BAC-induced inflammatory gene expression signatures in sputum; test: Bronchial allergen challenge (BAC) with HDM in patients with mild allergic asthma: gene expression signatures (mRNA) in induced sputum; type: in vivo, human; conditions: for eosinophil gene signature scores: FIG. 14, post bronchial allergen challenge, across treatment arms; for allergen-induced eosinophilic signature and broader type 2 inflammatory signature, including CCL26, CCL17, and SIGLEC8: monotherapy, REGN3500 IV 10 mg/kg single dose, dupilumab SC 600 mg day 1, 300 mg day 15, sputum after BAC
Method: Bronchial allergen challenge involves patient inhalation of allergen that results in a biphasic airway response, which is characterized by an early (30 minutes to 2 hours post-allergen challenge) and a late (approximately 3 to 8 hours post-allergen challenge) decline in forced expiratory volume over 1 second (FEV1).
Enrolled patients undergo BAC during the screening period, and at 4 and 8 weeks after administration of the first doses of study drug(s). The effects of the study drugs on BAC-induced lung inflammation are assessed via measurements of sputum molecular signatures (mRNAs and proteins). The sputum molecular signatures are assessed before BAC (baseline) and after BAC (post-BAC) at screening and at weeks 4 and 8 after treatment initiation (FIG. 1). The BAC-induced difference in the sputum signatures before and after BAC are evaluated at screening (screening change) and at weeks 4 and 8 post-treatment (week 4 change and week 8 change) will be observed. Since both REGN3500 and dupilumab display long half-lives, BAC change is evaluated at both week 4 and week 8 in the current study, to monitor the durability of the potential impact of study drug treatment on airway inflammation. The effect of study drug treatment on induced sputum gene signatures is evaluated by the difference between the BAC-induced screening change and the BAC-induced week 4 change (screening to week 4 change) and by the difference between the BAC-induced screening change and the BAC-induced week 8 change (screening to week 8 change).
Part 1 of this study is a randomized, double-blind, placebo-controlled, double-dummy parallel group study in mild persistent allergic asthmatic patients to assess the effect of REGN3500, dupilumab, REGN3500 plus dupilumab combination, or placebo on lung inflammation (as measured by sputum cytokine mRNAs) and measurements of the late phase inflammatory airway response to a BAC using HDM. Patients are randomized to one of the following treatment groups: REGN3500 (IV single dose); dupilumab (SC 2 doses, Q2W); combination REGN3500 (IV single dose) plus dupilumab (SC 2 doses, Q2W), and placebo (IV single dose and SC 2 doses, Q2W).
Because the treatment groups in this study include a first clinical dosing of REGN3500 plus dupilumab combination, Part 1 is performed in 2 phases to address any potential safety issues. The first 8 patients are randomized 1:1:1:1 to receive study drug. On day 1: patients in the REGN3500 group receive REGN3500 IV 10 mg/kg, followed by dupilumab-matching placebo SC, patients in the dupilumab group receive REGN3500-matching placebo IV followed by a loading dose of dupilumab SC 600 mg (2 injections of 300 mg), patients in the REGN3500 plus dupilumab combination will receive REGN3500 10 mg/kg IV, followed by dupilumab SC 600 mg (2 injections of 300 mg), and patients in the placebo group will receive REGN3500-matching placebo IV, followed by 2 injections of dupilumab-matching placebo SC.
On day 15 (week 2), patients assigned to the dupilumab group or the REGN3500 plus dupilumab combination group receive dupilumab SC 300 mg and all other patients receive dupilumab-matching placebo SC.
All enrolled patients return to the clinic on day 24± 2 days and on day 52 ± 2 days to provide a baseline induced sputum sample. If an adequate sputum sample cannot be obtained, patients may return 72 hours later for a second attempt to produce baseline sputum. Pre-BAC sputum collection must occur at least 72 hours prior to the BAC. Seventy-two hours after the baseline induced sputum sample is collected, on day 29 ± 2 days and on day 57 ± 2 days, respectively, patients return to the clinic, and measurements of FEV1, and FeNO are performed prior to undergoing BAC with HDM. Sputum induction is performed 8 hours and 24 hours after inhaled BAC at both the days 29 ± 2 (week 4) and 57 ± 2 days (week 8) visits. […]

[2] = tested on: blood eosinophils, neutrophils, circulating type 2 inflammatory mediators; test: BAC study: blood eosinophils, neutrophils and circulating type 2 inflammatory mediators; type: in vivo, human
Method: Circulating Biomarkers: circulating biomarker samples are collected at time points according to Table 1 and Table 2. Biomarker measurements are performed in serum and plasma samples to determine effects on biomarkers of inflammatory diseases pathobiology or relevant physiological and pathogenic processes. The biomarkers studied are ones believed to be relevant to the pathophysiology of diseases, target engagement, mechanism of action of REGN3500 (and/or combination therapy) and possible toxicities. Biomarkers studied in the blood may include but need not be limited to, IL-33, soluble ST2, calcitonin, and MMP12.

[3] = tested on: HDM-driven lung inflammation; test: Chronic house dust mite (HDM) model of lung inflammation; type: in vivo; conditions: FIG. 5; for pro-inflammatory cytokines and chemokines (lung panel hIL-4, IL-5, IL-1b, TNFα, IFNg, GROa, MCP-1): chronic HDM model; for inflammation in chronic HDM model of lung inflammation (lung eosinophils, lung neutrophils): with and without anti-IL-33 treatment
Source text: Data is presented showing levels of lung eosinophils and lung neutrophils in the HDM model with and without anti-IL-33 treatment. A heat map of a lung cytokine gene panel is presented showing levels of hIL-4, IL-5, IL-1b, TNFα, IFNg, GROa, and MCP-1. Alveolar SMA testing data is presented as well.
Treatment with REGN3 500 suppressed pro-inflammatory cytokines and chemokines. […] Other data presented includes a heat map of lung of cytokine panel showing levels of hIL-4, IL-5, IL-1b, TNFα, IFNg, GROa, and MCP-1. Alveolar SMA testing was also performed.

Substance	type 2 inflammatory cytokine and chemokine genes induced by BAC (IL-5, IL-13, Eot-3 (CCL26), TARC (CCL17), CCL1, FCER2, SIGLEC8) ([1]; FIG. 9, genes induced at 8 or 24 hours after allergen challenge, sputum)	eosinophil signature genes in sputum (ADARB1, ASB2, CLC, HDC, IL1RL1, PTPN7, SIGLEC8, SYNE1, VSTM1) ([1]; FIG. 11)	neutrophil signature genes ([1]; FIG. 11, sputum)	type 2 inflammatory signature genes in sputum (IL-4, IL-13, CCL26, CCL13, CCL17, CCL11, POSTN, IL-5, IL-9) ([1]; FIG. 12)	eosinophil gene signature scores [1]	decrease of type 2 signature scores ([1]; FIG. 15, compared with the fluticasone treatment arm)	allergic asthma signature genes (BC042385 ... RHOH) ([1]; FIG. 16, at 8 and/or 24 hours post BAC)	top allergic asthma signature genes induced by BAC at 24 hours (ASAP1-IT1 ... CCL17, CCL13, CCL26, SIGLEC8, IL13, IL5, PTGDS, RD3) ([1]; FIG. 17, screening vs treatment)	allergen-induced eosinophilic signature and broader type 2 inflammatory signature, including CCL26, CCL17, and SIGLEC8 [1]	neutrophils ([2]; in vivo)	other circulating type 2 inflammatory mediators ([2]; in vivo)	blood eosinophils ([2]; pharmacodynamic effect)	pro-inflammatory cytokines and chemokines (lung panel hIL-4, IL-5, IL-1b, TNFα, IFNg, GROa, MCP-1) ([3]; listed as REGN3 500)	pro-inflammatory cytokines and chemokines (lung panel hIL-4, IL-5, IL-1b, TNFα, IFNg, GROa, MCP-1) ([3]; listed as anti-IL-33)	inflammation in chronic HDM model of lung inflammation (lung eosinophils, lung neutrophils) [3]	inflammation in chronic HDM model of lung inflammation (lung eosinophils, lung neutrophils) ([3]; listed as anti-IL-33)	genes suppressed by REGN3500 (many of them) ([1]; albeit with different dynamics)
REGN3500: human anti-IL-33 antibody; HCVR/LCVR SEQ ID NOs: 2 and 10, heavy/light chain SEQ ID NOs: 18 and 20	suppressed	suppressed; also recorded: suppression	No anti-IL-33 (REGN3500) treatment-mediated effects were noted; also recorded: did not have an effect	suppressed; also recorded: suppression	able to reduce	lower decrease	affected	suppressed	significantly inhibited	No anti-IL-33 mediated reduction	no anti-IL-33 mediated reduction	reduction in blood eosinophils was a consistent pharmacodynamic effect	suppressed	suppresses	reduced inflammation	reduces inflammation	–
dupilumab: human anti-IL-4R antibody; HCVR/LCVR SEQ ID NOs: 27 and 28, heavy/light chain SEQ ID NOs: 29 and 30 [reference compound]	–	–	–	–	able to reduce	–	–	–	significantly inhibited	–	–	–	–	–	–	–	also suppressed

Source: US20230340101A1, “METHODS FOR TREATING OR PREVENTING ALLERGIC ASTHMA BY ADMINISTERING AN IL-33 ANTAGONIST AND/OR AN IL-4R ANTAGONIST” (SANOFI BIOTECHNOLOGY, priority 2019, published 2023)
